Measured values taken from patent US20150210717A1, “SPECIFIC INHIBITORS OF PROTEIN P21 AS THERAPEUTIC AGENTS” (BADEN-WÜRTTEMBERG STIFTUNG GMBH, priority 2012, published 2015).

Columns and labels:
[1] = test system: p21 promoter; assay: Cell-based p21 promoter luciferase screen with IC50 validation in H1299 cells with doxycycline-inducible p53; conditions: luciferase under p21 promoter, about 20 hours
Description: A cell-based screen was carried out to identify p21 inhibitors (FIG. 1a). H1299 cells (a cell line having a deletion in the p53 locus) were used. The H1299 cells contain a TetOn system for the inducible expression of p53. In addition, they contain luciferase under the control of the p21 promoter, which is activated by p53. Intracellular p53 expression was induced with doxycycline (0.5 μg/ml). Immediately thereafter, cells were exposed to test substances (5 μM) of the ChemBioNet collection (Leibniz Institut far Molekulare Pharmakologie, Berlin). About 20 hours later, cells were lysed and luciferase activity was determined. […]

[2] = test system: p21-mRNA; assay: p21-mRNA expression by qPCR in organs of Nothobranchius furzeri after intraperitoneal injection; assay type: in vivo; conditions: all tissues tested, 10 μM intraperitoneal, 48 h post treatment
Description: FIG. 6: Decreased p21-mRNA expression in different organs of model organism Nothobranchius furzeri in response to I18-inhibitor treatment. p21-mRNA expression in different organs was analysed by quantitative PCR (qPCR) in response to treatment with the p21-inhibitor I18. Upper panel depicts the fold expression difference of p21-mRNA relative to tbp (TATA-box binding protein). Lower panel depicts fold expression of p21-mRNA relative to control (DMSO-treated animals). Note that there is an over 2-fold reduction in all tissues tested indicating the efficiency of p21-inhibitors across different species. 10 weeks old Nothobranchius furzeri were either injected intraperitoneal with I18-compound [10 μM] or with DMSO as control and sacrificed 48 h post treatment. RNA of various tissues was harvested and p21-mRNA expression was measured using quantitative PCR (qPCR). Fold expression was calculated relative to house-keeping gene tbp (TATA-box binding protein) (FIG. 6, upper panel) or control animals (FIG. 6, lower panel).

[3] = test system: wound healing in C57BL/6 mice; assay: Wound healing after skin biopsy in C57BL/6 mice, intradermal injection; assay type: in vivo
From the text: FIG. 4: I-18 treatment improves wound healing in 24 week C57BL/6 mice Skin-biopsies (4-5 mm) were taken at Day 0 (D0) and lesions were either treated with 118 inhibitor (right panel) or DMSO treated as control (left panel).
FIG. 5: Depicts a statistic evaluation of the wound healing area 0, 2, and 4 days after application of I18 or placebo to wound area. Skin biopsies (4-5 mm) were taken at Day 0 of young and old C57Bl6 mice and lesions were either treated with I18 inhibitor or DMSO. […] This trend further increased at Day 4.
Skin-biopsies (4-5 mm) were taken at Day 0 (D0) and lesions were either treated with I18 compound (FIG. 4, right panel) or DMSO as control (FIG. 4, left panel) by intradermal injection [50 μM].

[4] = Homo sapiens, NCI-H1299, p53 induced with doxycycline 0.5 μg/ml

Row | SMILES | IC50 [1, 4] [µM] | also measured
1 | COc1ccc(C2C(C#N)=C(N)Oc3c2ccc2ccccc32)cc1C (centres unmarked) [A6, 2-amino-4-(4-methoxy-3-methylphenyl)-4H-benzo[h]chromene-3-carbonitrile] | 1.13 | –
2 | CCOC(=O)c1ccc(Nc2nc3nonc3nc2Nc2cccc(C)c2C)cc1 [A13, Ethyl-4-[[5-(2,3-dimethylanilino)-[1,2,5]oxadiazolo[3,4-b]pyrazin-6-yl]amino]benzoate] | 0.76 | –
3 | COc1ccc(C(=O)Nc2nc(NC(=O)c3ccc(F)cc3)nn2-c2ccccc2)cc1 [E6, N-[5-[(4-Fluorobenzoyl)amino]-2-phenyl-1,2,4-triazol-3-y1]-4-methoxybenzamide] | – | IC50 ([1]; p53 induced with doxycycline 0.5 μg/ml): 0.49 µM
4 | NS(=O)(=O)c1ccc(CCNc2ncnc3c2c(-c2ccccc2)cn3-c2ccc(Br)cc2)cc1 [F3, 4-[2-[[7-(4-Bromophenyl)-5-phenylpyrrolo[2,3-d]pyrimidin-4-yl]amino]ethyl]benzenesulfonamide] | 6.08 | –
5 | Cc1ccc2[nH]c3c(c2c1)CCCC3Nc1ccccc1 (centres unmarked) [I18, 6-methyl-N-phenyl-2,3,4,9-tetrahydro-1H-carbazol-1-amine] | 0.17 | reduction of p21-mRNA expression relative to control (DMSO-treated animals) [2]: over 2 fold; wound healing in old treated mice versus p21-deficient mice ([3]; after 4 days, old mice): comparable to p21-deficient mice; wound healing of old mice compared to mock treated control mice of the same age ([3]; day 2, old C57Bl6 mice, trend further increased at day 4): significantly improved; wound healing compared to DMSO treated control mice ([3]; day 2 and 4, skin biopsies 4-5 mm, intradermal injection 50 μM): significantly improved
6 | O=C(Nc1ccc(OCC(F)(F)C(F)F)c(C(F)(F)F)c1)c1ccccc1O [K2, 2-Hydroxy-N-[4-(2,2,3,3-tetrafluoropropoxy)-3-(trifluoromethyl)phenyl)benzamide] | 1.72 | –
7 | Cc1c(Br)ccc(Nc2c([N+](=O)[O-])cc3c4c(cccc24)C(=O)N(CCO)C3=O)c1C [M3, 6-(4-Bromo-2,3-dimethylanilino)-2-(2-hydroxyethyl)-5-nitrobenzo[de]isoquinoline-1,3-dione] | 3.58 | –
8 | CC(C)c1ccc(-c2c(C#N)c(N)n3c(nc4ccccc43)c2C#N)cc1 [N13, 1-Amino-3-(4-propan-2-ylphenyl)pyrido[1,2-a]benzimidazole-2,4-dicarbonitrile] | 1.11 | –
9 | CCc1ccc2c(c1)C1(NN=C(c3cccc4ccccc34)S1)C(=O)N2 (centres unmarked) [O6, 5-Ethyl-5′naphthalen-1-ylspiro[1H-indole-3,2′-3H-1,3,4-thiadiazole]-2-one] | 3.68 | –
10 | O=c1c2ccccc2c2nccc3c4cc(O)ccc4n1c32 [P21, 5-hydroxy-9H-benzo[c]indolo[3,2,1-ij][1,5]naphthyridin-9-one] | 1.07 | –
